From US5443967A, “DNA encoding the cancer associated SCM recognition factor” (priority 1993, dated 1995)
“Also recorded” adds a separate entry of the source. *1 amine or outer side, *2 acyl side, *3 side chain or, on linkers, in order; H or OH if unused. Where a SMILES comes first, the peptide text is derived from it. Bridges are numbered along the chain shown (N, C = ends). Roman numbers before positions name the chains, in order. Where no end group is shown, it is not given here. [ ]: non-standard residue; d: D form. Actinocin(9to1) = Cc1c2oc3c(C)ccc(C(=O)[*:1])c3nc-2c(C(=O)[*:2])c(N)c1=O; NMeV = CN[C@H](C(=O)O)C(C)C; Sar = CNCC(=O)O

What was measured:
[1] = tested on: K 562 human myeloid cell line; assay: Natural lymphocyte cytotoxicity against K 562 cells (51Cr release); format: cell-based; conditions: for Percent Cytotoxicity: PBL, 35 femtomoles, 2.5 hours 37° C., 40:1; for Percent Cytotoxicity: Treated & Washed Lymphocytes: 35 femtomoles per lymphocyte, effector/target 40:1
Method: Aliquots of these lymphocytes were also retained as controls and not incubated. In addition, potentially SCM-responding lymphocytes were obtained from donors having cancer, and treated in the same manner-some aliquots incubated with plasma containing SCM factor and others retained as controls and not incubated.
After incubation the cytotoxicity of the lymphocytes was tested in accordance with the method described in M. R. Potter and M. Moore, "Natural Cytotoxic Reactivity of Human Lymphocyte Subpopulations," Immunology 37, 187-194 (1979). In accordance with this published method cells of the K 562 human myeloid cell line labeled with ^51 Cr were used as target cells for the assay. The potentially SCM-responding lymphocytes were used as the effector cells. The ratio of target cells to effector cells was 1 to 20. […] The percent of cytotoxicity is determined as follows: [formula] where RS is the percent of ^51 Cr release in the sample, RC the percent of ^51 Cr release in the control and RT is the percent of ^51 Cr release in the presence of a detergent, Triton X-100. […] When the incubation was performed with potentially SCM-responding lymphocytes from cancer patients, the decrease in cytotoxicity was smaller, between 40 and 90%. […] The lower level of cytotoxicity present in cells from cancer patients was consistent with a decrease of such cytotoxicity caused by in vivo exposure to factors such as the cancer-associated SCM recognition factor.
The purified synthetic SCM factor molecule and peptides F1-F5, F7, and F8, as described above in Example 16, were investigated to determine their suppressive effect on the natural cytotoxicity of lymphocytes against cancer cells, using the human myeloid cell line K 562 as target as measured by the conventional ^51 Cr release method (Example 13).
In brief, the K 562 target cells grown in suspension in RPMI-FBS culture medium were washed and labeled for 3 hours at 37° C. with 100 μCi sodium [^51 Cr]chromate and then washed 4 times in RPMI growth medium. The effector lymphocytes used were isolated from heparinized peripheral blood of normal healthy donors using either appropriate density solutions to isolate the SCM-responding subpopulation of lymphocytes, as described above under "Isolation of SCM-responding Lymphocytes," or the conventional separation medium Histopaque 1077 for isolation of the total population of peripheral blood lymphocytes (PBL). The effector cell to target cell ratio used in these experiments was 40:1. Control samples contained target cells only and were used to determine background isotope release from the target cells. The test samples contained 0.2 mL aliquots of labeled target cells to which 0.2 mL of effector lymphocytes was added; the effector lymphocytes were either untreated or had been pretreated with either the entire synthetic SCM factor or any of the fragments designated F1 to F5, F7, or F8 for 2.5 hours at 37° C. The tests were carries out in triplicate. Cell suspensions were incubated for 18 hours at 37° C. in an atmosphere of 95% air and 5% CO2. Samples were then centrifuged for 10 minutes at 200 xg. From each test sample tube, a 0.2 mL aliquot of the supernatant was removed. Both the supernatant and the remaining cell pellet were counted in a Beckman gamma counter. The maximum possible isotope release was taken as the count obtained by adding the counts for the supernatant and cell pellets. The percentage of ^51 Cr release was determined for each of the triplicate samples; using the mean value of ^51 Cr release, the percentage of cytotoxicity was calculated according to the equation presented in Table 25.

[2] = tested on: T1080 fibrosarcoma cells; assay: SCM factor in cultured cancer cells by noncompetitive ELISA; format: cell-based, human
Method: (§1) The SCM factors secreted from human cancer cells in culture whose amino acid sequences were presented in Example 24 also reacted with the anti-SCM antibody of Example 20. A variation on the ELISA assay of Example 21 was used. In this version of the ELISA assay, the assay was performed directly on the eluate from the RP-HPLC purification step that remained adsorbed to the Eppendorf™ collection tubes after loading of the bulk of the eluates onto the sequenator disk. No other SCM factor was added, and there was no additional sample added to the assay. This version of the SCM ELISA assay is noncompetitive; the larger is the quantity of SCM factor adsorbed to the Eppendorf™ tubes, the higher is the measured A405. The results, shown in Table 15, clearly indicate the presence of material able to react with anti-SCM antibody in these fractions.
(§2) Human cancer cells in culture were directly shown to contain SCM-factor molecules by antibody reactivity. Washed cells from monolayered cultures of several human cancer cells: MCF7 breast cancer cells; T1080 fibrosarcoma cells; A2780 ovarian cancer cells; and HCT80 colon cancer cells, were assayed directly by the noncompetitive ELISA assay procedure of Example 25.

[3] = tested on: SCM-responding lymphocytes from healthy donors; assay: Modification/induction of SCM response of lymphocytes from healthy donors by preincubation with SCM factor; format: cell-based, human; conditions: 10 μg/5×10^6 cells during incubation with synthetic SCM factor
Method: 10, 1986, and entitled "Automated Collection of Buoyant Density Specific Cells from Density Gradients." Aliquots of these cells were incubated in 3 ml of the following: (a) cell-free blood plasma from cancer patients; (b) plasma from cancer patients ultrafiltered for 12 hours through an Amicon™ UM2 filter with a molecular weight cutoff of 1000 daltons; (c) plasma from cancer patients ultrafiltered for 12 hours through an Amicon™ UM5 filter with a nominal molecular weight cutoff of 500 daltons; (d) general cancer-associated SCM factor as purified through the desalting or Sephadex G-10 column stage; (e) the factor as purified through the Sephadex G-50 column stage; (f) the factor as purified through the DEAE-cellulose column step; (g) the factor as finally purified through the RP-HPLC step; and (h) plasma from healthy donors ultrafiltered through an Amicon™ UM2 filter with a nominal molecular weight cutoff of 1000 daltons. […]
Before being contacted with either a mitogen or with the SCM factor for determination of the RRSCM the incubated cells were thoroughly washed. The presence or absence of modification was determined by the ratio of the polarization value of the lymphocyte suspension after a short contact period with substrates containing the SCM factor over the polarization value of the lymphocyte suspension after a short contact period with phytohaemagglutinin (PHA). […]

[4] = tested on: MCF7 breast cancer cells; assay: SCM factor in cultured cancer cells by noncompetitive ELISA; format: cell-based, human
Method: as §1, §2
As shown in Table 17 of Example 26, treatment of human cultured cancer cells with cycloheximide, an inhibitor of protein synthesis, decreases the amount of SCM factor produced by these cells. […] The amounts of SCM factor per 7×10^6 cells in the presence or absence of 10^-3 molar ascorbic acid after a 16-hour incubation were measured by the noncompetitive ELISA procedure of Example 25. The aliquot of cancer cells incubated in the presence of ascorbate ions produced 43.9% less SCM factor than untreated control cells.

[5] = tested on: SCM-responding lymphocytes; conditions: from prior applications Ser. No. 07/167,007 and 07/163,250; cited from earlier work
[6] = experiment with untreated control 46.5 ± 1.5
[7] = experiment with untreated control 72.7 ± 1.2
[8] = experiment with untreated control 80.4 ± 1.0
[9] = cycloheximide 50 μg/10^6 cells, 16 hrs
[10] = experiment with untreated control 71.2 ± 1.5

With “FNKPFVFLMIDQNTKVPLFMGK [F2, FNKPFVFLMIDQNTKVPLFMGK]” the “Percent Cytotoxicity” value [1, 6] was 2.4 ± 0.2%, the “Percent Cytotoxicity” value [1, 7] was 14.9 ± 1.5% and the “Percent Cytotoxicity” value [1, 8] was 2.6 ± 1.7%.

With FLMIDQNTK [F4, F-L-M-I-D-Q-N-T-K] the “Percent Cytotoxicity” value [1, 6] was 48.6 ± 1.3%, the “Percent Cytotoxicity” value [1, 7] was 76.2 ± 1.3% and the “Percent Cytotoxicity” value [1, 8] was 81.0 ± 1.5%.

With C[C@@H]1C[C@@H]([C@H](O)CC2CC(=O)NC(=O)C2)C(=O)[C@@H](C)C1 [Cycloheximide, cycloheximide] the “Corrected A405 As % of Control” value [2, 9] was 66.0 % of Control, the “Corrected A405 (SCM factor synthesis)” value ([2]; cycloheximide 50 μg/10^6 cells, 16 hrs, control 1.5060) was 0.9940 and the “decrease of concentration of SCM factor associated with the cells” value ([2]; cycloheximide treatment) was 34%. For the same molecule, the “induction of response to synthetic SCM factor in presence of protein synthesis inhibitor” value [3] was “no response to synthetic SCM factor was induced”, the “Corrected A405 As % of Control” value ([4]; cycloheximide 20 μg/10^6 cells, 3 hrs) was 91.2 % of Control and the “Corrected A405 (SCM factor synthesis)” value ([4]; cycloheximide 20 μg/10^6 cells, 3 hrs, control 2.0716) was 1.8893. The “Corrected A405 As % of Control” value [4, 9] was 74.7 % of Control, the “Corrected A405 (SCM factor synthesis)” value ([4]; cycloheximide 50 μg/10^6 cells, 16 hrs, control 0.9654) was 0.7217 and the “decrease of concentration of SCM factor associated with the cells” value ([4]; cycloheximide treatment) was 25.3%.

In the case of “F-S-W-G-A-E-G-Q-R (FSWGAEGQR) [EAE peptide, experimental allergic encephalitogenic peptide]”, the “SCM factor activity” value [5] is listed as “has no SCM factor activity; also recorded: completely devoid of SCM activity”.

For VPLFMGK [F8], the “Percent Cytotoxicity” value ([1]; experiment with untreated control 31.0 ± 2.0) was 33.0 ± 1.8% and the “Percent Cytotoxicity” value [1, 10] was 71.7 ± 1.2%.

For Cc1c2oc3c(C)ccc(C(=O)N[C@@H]4C(=O)N[C@H](C(C)C)C(=O)N5CCC[C@H]5C(=O)N(C)CC(=O)N(C)[C@@H](C(C)C)C(=O)O[C@@H]4C)c3nc-2c(C(=O)N[C@@H]2C(=O)N[C@H](C(C)C)C(=O)N3CCC[C@H]3C(=O)N(C)CC(=O)N(C)[C@@H](C(C)C)C(=O)O[C@@H]2C)c(N)c1=O [Actinomycin D, actinomycin D] (I: T[dV]P[Sar][NMeV] / II: T[dV]P[Sar][NMeV]; ester I:1-I:C, II:1-II:C; linker I:N-II:N via Actinocin(9to1)), the “induction of response to synthetic SCM factor in presence of protein synthesis inhibitor” value [3] was “no response to synthetic SCM factor was induced”.

For FLMIDQNTKVPLFMGK [F7], the “Percent Cytotoxicity” value [1, 10] was 72.7 ± 1.0%.

For O=C1O[C@H]([C@@H](O)CO)C(O)=C1O [L-ascorbic acid], the “Corrected ELISA A405 (SCM factor synthesis)” value ([4]; 1 × 10^-3 M, pH 7.1, 16 hrs at 37° C., 7×10^6 cells, control 1.7448) was 0.9788, the “less SCM factor produced than untreated control cells” value ([4]; 10^-3 molar, 16-hour incubation) was 43.9% and the activity at 1000 µM ([4]; Homo sapiens, MCF7, 1 × 10^-3 M, pH 7.1, 16 hrs at 37° C., read-out: Corrected ELISA A405 as % of Control) was 56.1%.

For “MIPPEVKFNKPFVFLMDQNTK [F1, MIPPEVKFNKPFVFLMDQNTK]”, the “Percent Cytotoxicity” value [1, 7] was 78.5 ± 1.0% and the “Percent Cytotoxicity” value [1, 8] was 81.0 ± 1.0%.

In the case of “MIPPEVKFNKPFVF [F5, M-I-P-P-E-V-K-F-N-K-P-F-V-F]”, the “Percent Cytotoxicity” value [1, 7] is reported as 72.7 ± 1.3% and the “Percent Cytotoxicity” value [1, 8] is reported as 79.8 ± 0.9%.

For “FNKPFVFLMIDQNTK [F3, F-N-K-P-F-V-F-L-M-I-D-Q-N-T-K]”, the “Percent Cytotoxicity” value [1, 7] was 74.5 ± 1.5% and the “Percent Cytotoxicity” value [1, 8] was 80.5 ± 1.0%.

With “MIPPEVKFNKPFVFLMIDQNTKVPLFMGK [Synthetic SCM Factor, MIPPEVKFNKPFVFLMIDQNTKVPLFMGK]” the “dose resulting in a 50% decrease in cytotoxicity” value [1] was 11.5 femtomoles per lymphocyte, the “quantity required for a 50% decrease of the cytotoxic effect” value [1] was 11.5 femtomoles and the “Percent Cytotoxicity: Treated & Washed Lymphocytes” value ([1]; PBL of healthy donors) was 3.0 ± 0.8%. For the same molecule, the “Percent Cytotoxicity” value [1, 6] was 0.1 ± 0.8%, the “Percent Cytotoxicity” value [1, 7] was 3.2 ± 0.1% and the “Percent Cytotoxicity” value [1, 8] was 3.1 ± 0.8%. For the same molecule, the “Percent Cytotoxicity: Treated & Washed Lymphocytes” value ([1]; SCM-R lymphocytes of healthy donors) was 0.1 ± 0.9%.

In the case of F-W-G-A-E-G-Q-R (FWGAEGQR), the “SCM factor activity” value [5] is given as “with SCM-factor activity”.
